In ChEMBL document CHEMBL1201862, “PubChem BioAssay data set” (2004):
Values belong to the compound of their own block, whether it stands above or below them. Calls of active or inactive are those of the source.

Legend:
[1] = biological target: Intestinal-type alkaline phosphatase (Homo sapiens, UniProt P09923); test: human intestinal alkaline phosphatase activators, dose response, biochemical, luminescence, uHTS hits (AID 463120); format: functional
[2] = biological target: T1, Sentrin-specific protease 1 (Homo sapiens, UniProt Q9P0U3); test: potency of human SENP1 inhibitors, dose response, biochemical, kinetic FRET (AID 651697); format: functional; details: read-out: IC50_Mean
T1 sequence (Q9P0U3 whole entry): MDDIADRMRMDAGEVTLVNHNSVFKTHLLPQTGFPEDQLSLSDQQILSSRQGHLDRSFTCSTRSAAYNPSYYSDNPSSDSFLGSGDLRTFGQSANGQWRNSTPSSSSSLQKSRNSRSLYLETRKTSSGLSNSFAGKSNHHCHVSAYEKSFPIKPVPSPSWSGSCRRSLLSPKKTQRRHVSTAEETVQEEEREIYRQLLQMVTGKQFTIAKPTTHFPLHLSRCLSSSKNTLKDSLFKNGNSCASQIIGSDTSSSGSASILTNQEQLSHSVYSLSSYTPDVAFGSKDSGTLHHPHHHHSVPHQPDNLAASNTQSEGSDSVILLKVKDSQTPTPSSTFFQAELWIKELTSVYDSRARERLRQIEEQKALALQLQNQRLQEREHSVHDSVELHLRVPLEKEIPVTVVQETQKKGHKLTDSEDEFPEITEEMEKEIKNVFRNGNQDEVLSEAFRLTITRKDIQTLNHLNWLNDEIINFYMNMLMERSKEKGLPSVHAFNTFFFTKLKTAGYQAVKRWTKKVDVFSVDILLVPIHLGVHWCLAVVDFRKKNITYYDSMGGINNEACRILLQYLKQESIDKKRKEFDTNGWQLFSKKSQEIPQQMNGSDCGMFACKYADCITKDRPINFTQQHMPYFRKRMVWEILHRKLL

[3] = biological target: T1, Sentrin-specific protease 1; test: Dose response confirmation of small molecule inhibitors of the catalytic domain of the SUMO protease, SENP1 in a FRET assay.; format: functional; details: read-out: IC50_Mean
[4] = biological target: Sphingosine 1-phosphate receptor 1 (Homo sapiens, UniProt P21453); test: Fluorescence-based counterscreen assay for S1P4 agonists: Cell-based dose response high throughput screening assay to identify agonists of the Sphingosine 1-Phosphate Receptor 1 (S1P1). [Related pubchem assays (depositor defined):AID1509, AID1523, AID1801, AID463107, AID463118, AID463119, AID463122, AID463123, AID463129, AID463225, AID504400, AID504460]; format: functional
[5] = biological target: T2, Sphingosine 1-phosphate receptor 4 (Homo sapiens, UniProt O95977); test: Fluorescence dose response cell-based high throughput screening assay for agonists of the Sphingosine 1-Phosphate Receptor 4 (S1P4). [Related pubchem assays: 1509 (Primary screen.), 1523 (Confirmation screen in triplicates.)]; format: functional
T2 sequence (O95977 whole entry): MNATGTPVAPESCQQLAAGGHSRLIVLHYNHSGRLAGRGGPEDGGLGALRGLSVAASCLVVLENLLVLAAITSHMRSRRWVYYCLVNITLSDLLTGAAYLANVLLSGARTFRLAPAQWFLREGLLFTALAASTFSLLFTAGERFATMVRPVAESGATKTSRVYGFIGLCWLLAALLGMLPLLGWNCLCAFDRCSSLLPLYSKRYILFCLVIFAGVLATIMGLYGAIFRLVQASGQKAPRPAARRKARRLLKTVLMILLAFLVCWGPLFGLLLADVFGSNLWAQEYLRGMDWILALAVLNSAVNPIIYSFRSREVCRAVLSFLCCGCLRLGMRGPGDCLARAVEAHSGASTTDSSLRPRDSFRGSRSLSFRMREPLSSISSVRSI

[6] = biological target: T3, 5-hydroxytryptamine receptor 1A (Homo sapiens, UniProt P08908); format: functional
T3 sequence (P08908 whole entry): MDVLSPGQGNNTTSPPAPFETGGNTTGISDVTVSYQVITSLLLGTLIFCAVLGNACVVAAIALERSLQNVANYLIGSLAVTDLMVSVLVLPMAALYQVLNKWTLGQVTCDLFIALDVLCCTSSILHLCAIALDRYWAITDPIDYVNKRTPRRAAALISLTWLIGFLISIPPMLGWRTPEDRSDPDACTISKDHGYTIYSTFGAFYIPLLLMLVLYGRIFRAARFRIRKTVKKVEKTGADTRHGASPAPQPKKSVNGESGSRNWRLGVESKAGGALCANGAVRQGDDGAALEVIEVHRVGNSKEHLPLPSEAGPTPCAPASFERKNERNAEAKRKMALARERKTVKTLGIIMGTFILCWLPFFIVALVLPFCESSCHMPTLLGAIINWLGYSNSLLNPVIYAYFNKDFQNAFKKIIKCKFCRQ

[7] = biological target: Sphingosine 1-phosphate receptor 2 (Homo sapiens, UniProt O95136); test: Dose Response Cell Based Assay for Agonists of the S1P2 Receptor. [Related pubchem assays: 729, 736, 843 ]; format: functional
SUMO-activating enzyme [8] = biological target: T4, SUMO-activating enzyme (Homo sapiens, UniProt Q9UBT2); test: SUMOylation inhibitor hit validation, confirmation, SUMOylation inhibitor project, biochemical, AlphaScreen (AID 2018); format: functional
SUMO-activating enzyme [9] = biological target: T4, SUMO-activating enzyme; test: inhibitors of in vitro SUMOylation cascade, primary screen, biochemical, HTRF, uHTS (AID 2006); format: protein-complex assay
[10] = biological target: T5, Tyrosine-protein phosphatase non-receptor type 22 (Homo sapiens, UniProt Q9Y2R2); test: SAR LYP1 Fluorescent Assay using pCAP substrate for In Vitro dose response studies - Set 2. [Related pubchem assays (depositor defined):AID1779, AID1784, AID2135, AID449727]; format: functional
T5 sequence (Q9Y2R2 whole entry): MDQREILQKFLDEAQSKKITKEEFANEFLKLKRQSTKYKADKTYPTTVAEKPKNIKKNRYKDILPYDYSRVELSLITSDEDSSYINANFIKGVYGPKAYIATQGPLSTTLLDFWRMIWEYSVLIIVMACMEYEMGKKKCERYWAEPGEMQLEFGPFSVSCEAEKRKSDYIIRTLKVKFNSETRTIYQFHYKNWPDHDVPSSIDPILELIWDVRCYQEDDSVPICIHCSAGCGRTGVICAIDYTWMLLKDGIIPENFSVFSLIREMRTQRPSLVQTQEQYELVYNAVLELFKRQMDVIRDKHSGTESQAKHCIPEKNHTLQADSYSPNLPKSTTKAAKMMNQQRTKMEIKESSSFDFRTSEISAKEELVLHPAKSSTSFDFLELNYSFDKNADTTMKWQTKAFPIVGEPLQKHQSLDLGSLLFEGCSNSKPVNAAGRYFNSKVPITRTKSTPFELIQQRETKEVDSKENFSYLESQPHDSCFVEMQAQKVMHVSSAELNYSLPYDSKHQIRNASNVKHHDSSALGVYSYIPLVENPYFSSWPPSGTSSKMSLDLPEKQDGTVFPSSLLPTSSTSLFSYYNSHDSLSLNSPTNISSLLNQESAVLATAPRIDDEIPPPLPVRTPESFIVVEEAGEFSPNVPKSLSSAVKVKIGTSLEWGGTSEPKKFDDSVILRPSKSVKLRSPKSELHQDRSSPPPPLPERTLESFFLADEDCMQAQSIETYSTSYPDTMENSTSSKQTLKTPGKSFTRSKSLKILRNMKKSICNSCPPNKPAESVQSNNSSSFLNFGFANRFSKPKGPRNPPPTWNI

[11] = biological target: T6, Tyrosine-protein phosphatase non-receptor type 12 (Homo sapiens, UniProt Q05209); test: SAR Selectivity Analysis of small molecule inhibitors of PEST using pCAP in a fluorescence assay. [Related pubchem assays (depositor defined):AID1779, AID1784, AID2135]; format: functional
T6 sequence (Q05209 whole entry): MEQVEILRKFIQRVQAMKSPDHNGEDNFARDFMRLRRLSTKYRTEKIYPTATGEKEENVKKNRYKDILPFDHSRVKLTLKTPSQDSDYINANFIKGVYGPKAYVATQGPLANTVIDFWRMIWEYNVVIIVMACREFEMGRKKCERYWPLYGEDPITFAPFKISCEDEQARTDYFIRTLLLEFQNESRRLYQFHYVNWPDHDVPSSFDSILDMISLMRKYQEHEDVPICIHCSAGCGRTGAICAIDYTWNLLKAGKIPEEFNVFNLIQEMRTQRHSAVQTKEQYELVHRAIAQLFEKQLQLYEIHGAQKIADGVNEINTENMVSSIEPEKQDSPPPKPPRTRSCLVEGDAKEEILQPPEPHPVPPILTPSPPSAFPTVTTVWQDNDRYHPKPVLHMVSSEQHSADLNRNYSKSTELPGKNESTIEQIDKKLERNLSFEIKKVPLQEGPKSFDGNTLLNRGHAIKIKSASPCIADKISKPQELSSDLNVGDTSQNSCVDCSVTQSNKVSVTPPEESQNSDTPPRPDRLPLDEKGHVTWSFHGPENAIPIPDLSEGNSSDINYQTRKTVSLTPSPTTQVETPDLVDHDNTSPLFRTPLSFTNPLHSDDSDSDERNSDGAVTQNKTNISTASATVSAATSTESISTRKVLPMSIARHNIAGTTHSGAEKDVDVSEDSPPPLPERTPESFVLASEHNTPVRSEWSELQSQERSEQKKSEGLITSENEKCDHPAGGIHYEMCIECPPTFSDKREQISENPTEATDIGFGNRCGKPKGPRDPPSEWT

[12] = biological target: T5, Tyrosine-protein phosphatase non-receptor type 22; test: SAR LYP1 Fluorescent Assay using OMFP substrate for In Vitro dose response studies - Set 3. [Related pubchem assays (depositor defined):AID1779, AID1784, AID2140, AID2686]; format: functional
[13] = biological target: T7, Tyrosine-protein phosphatase non-receptor type 7 (Homo sapiens, UniProt P35236); test: HePTP (PTPN7) phosphatase inhibitor potency, SAR follow-up, biochemical, set 2 (AID 449736); format: functional
T7 sequence (P35236 whole entry): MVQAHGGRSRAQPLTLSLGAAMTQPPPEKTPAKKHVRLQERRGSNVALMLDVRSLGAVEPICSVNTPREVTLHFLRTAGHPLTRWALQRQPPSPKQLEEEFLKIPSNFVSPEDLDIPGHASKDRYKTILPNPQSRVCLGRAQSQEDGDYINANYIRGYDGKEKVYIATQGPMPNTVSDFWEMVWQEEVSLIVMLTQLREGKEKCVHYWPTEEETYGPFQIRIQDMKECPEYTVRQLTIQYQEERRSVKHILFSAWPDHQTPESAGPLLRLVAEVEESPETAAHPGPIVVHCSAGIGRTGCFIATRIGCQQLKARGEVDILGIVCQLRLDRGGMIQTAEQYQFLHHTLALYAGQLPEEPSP

[14] = biological target: T5, Tyrosine-protein phosphatase non-receptor type 22; test: LYP (PTPN22) phosphatase inhibitor potency, SAR follow-up, biochemical, pCAP fluorogenic substrate, fluorescence, set 3 (AID 449727); format: functional
[15] = biological target: T5, Tyrosine-protein phosphatase non-receptor type 22; test: SAR LYP1 Fluorescent Assay using OMFP substrate for In Vitro dose response studies - Set 2. [Related pubchem assays (depositor defined):AID1779, AID1784, AID2140, AID449726, AID488869]; format: functional
[16] = biological target: T8, Small ubiquitin-related modifier 1 (Homo sapiens, UniProt P63165); test: inhibitors of SUMO1 peptide binding, dose response, biochemical, fluorescence polarization, uHTS hits (AID 624382); format: functional; details: read-out: IC50_Mean
[17] = biological target: T8, Small ubiquitin-related modifier 1; test: inhibitors of SUMO1 partner interactions, dose response, biochemical, FRET (AID 624383); format: functional; details: read-out: IC50_Mean
[18] = biological target: Voltage-dependent T-type calcium channel subunit alpha-1H (Homo sapiens, UniProt O95180); test: Cav3.2 T-type channel inhibitors, synthesized analogs, SAR follow-up, cell-based, synthetic library set 2, HEK293 HH8, Fluo-4 (AID 493023); format: functional
[19] = biological target: T9, Kappa-type opioid receptor (Homo sapiens, UniProt P41145); test: SAR analysis of small molecule antagonists of the kappa opioid receptor via a luminescent beta-arrestin assay - Set 4. [Related pubchem assays (depositor defined):AID1777, AID1778, AID1785, AID1786, AID1966, AID2133, AID2136, AID2285]; format: functional
[20] = biological target: T9, Kappa-type opioid receptor; test: SAR analysis of small molecule antagonists of the kappa opioid receptor via a luminescent beta-arrestin assay - Set 5. [Related pubchem assays (depositor defined):AID1778, AID1785]; format: functional

T4 sequence (Q9UBE0 whole entry): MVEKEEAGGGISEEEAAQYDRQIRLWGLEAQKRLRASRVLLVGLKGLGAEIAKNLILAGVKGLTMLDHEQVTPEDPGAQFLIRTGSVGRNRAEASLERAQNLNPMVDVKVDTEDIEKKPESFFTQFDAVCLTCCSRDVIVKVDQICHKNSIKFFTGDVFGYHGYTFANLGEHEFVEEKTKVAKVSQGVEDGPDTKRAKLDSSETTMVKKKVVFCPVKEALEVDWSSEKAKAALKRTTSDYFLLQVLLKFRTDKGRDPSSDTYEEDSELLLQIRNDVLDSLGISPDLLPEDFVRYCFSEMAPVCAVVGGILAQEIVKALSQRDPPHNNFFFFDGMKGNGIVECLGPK
T4 sequence (Q9UBT2 whole entry): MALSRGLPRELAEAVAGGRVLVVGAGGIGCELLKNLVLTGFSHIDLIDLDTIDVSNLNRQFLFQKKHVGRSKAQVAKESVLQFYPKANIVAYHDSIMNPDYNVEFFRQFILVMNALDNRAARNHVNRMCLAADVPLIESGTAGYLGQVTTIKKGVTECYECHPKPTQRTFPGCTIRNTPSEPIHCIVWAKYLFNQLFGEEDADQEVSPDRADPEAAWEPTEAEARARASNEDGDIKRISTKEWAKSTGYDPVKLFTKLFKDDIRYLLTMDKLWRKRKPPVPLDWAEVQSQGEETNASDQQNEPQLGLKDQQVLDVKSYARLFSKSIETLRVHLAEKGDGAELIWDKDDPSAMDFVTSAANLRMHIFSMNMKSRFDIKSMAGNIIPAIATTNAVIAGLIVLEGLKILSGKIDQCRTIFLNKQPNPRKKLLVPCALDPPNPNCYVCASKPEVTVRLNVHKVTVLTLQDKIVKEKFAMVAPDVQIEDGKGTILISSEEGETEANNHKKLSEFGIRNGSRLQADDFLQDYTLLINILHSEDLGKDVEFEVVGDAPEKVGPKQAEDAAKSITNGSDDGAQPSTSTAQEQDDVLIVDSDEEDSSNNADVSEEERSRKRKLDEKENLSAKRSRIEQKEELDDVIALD
T9 sequence (P41145 whole entry): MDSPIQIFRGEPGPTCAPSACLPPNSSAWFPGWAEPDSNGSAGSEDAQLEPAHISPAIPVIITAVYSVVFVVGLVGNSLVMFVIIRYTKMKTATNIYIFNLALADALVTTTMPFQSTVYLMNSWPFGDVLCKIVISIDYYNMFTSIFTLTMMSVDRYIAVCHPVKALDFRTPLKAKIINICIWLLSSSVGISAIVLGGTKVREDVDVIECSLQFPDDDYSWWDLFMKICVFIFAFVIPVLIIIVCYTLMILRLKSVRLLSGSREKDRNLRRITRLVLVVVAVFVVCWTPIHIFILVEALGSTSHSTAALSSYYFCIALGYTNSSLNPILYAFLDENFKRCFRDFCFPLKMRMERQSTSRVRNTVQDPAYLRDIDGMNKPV
T8 sequence (P63165 whole entry): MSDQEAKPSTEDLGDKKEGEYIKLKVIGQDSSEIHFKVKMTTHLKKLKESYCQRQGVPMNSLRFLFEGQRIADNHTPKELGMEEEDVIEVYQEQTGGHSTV
Chain of Sphingosine 1-phosphate receptor 2 (O95136 whole entry): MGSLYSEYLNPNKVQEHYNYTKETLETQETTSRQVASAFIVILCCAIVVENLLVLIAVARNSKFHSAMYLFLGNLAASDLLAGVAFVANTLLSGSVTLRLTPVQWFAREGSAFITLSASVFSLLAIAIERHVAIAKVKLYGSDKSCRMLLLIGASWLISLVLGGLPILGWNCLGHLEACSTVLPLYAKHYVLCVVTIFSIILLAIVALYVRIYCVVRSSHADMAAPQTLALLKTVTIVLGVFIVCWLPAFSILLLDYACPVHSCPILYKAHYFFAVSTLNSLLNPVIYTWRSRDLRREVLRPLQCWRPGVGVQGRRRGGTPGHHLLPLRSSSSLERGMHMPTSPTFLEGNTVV
Chain of Sphingosine 1-phosphate receptor 1 (P21453 whole entry): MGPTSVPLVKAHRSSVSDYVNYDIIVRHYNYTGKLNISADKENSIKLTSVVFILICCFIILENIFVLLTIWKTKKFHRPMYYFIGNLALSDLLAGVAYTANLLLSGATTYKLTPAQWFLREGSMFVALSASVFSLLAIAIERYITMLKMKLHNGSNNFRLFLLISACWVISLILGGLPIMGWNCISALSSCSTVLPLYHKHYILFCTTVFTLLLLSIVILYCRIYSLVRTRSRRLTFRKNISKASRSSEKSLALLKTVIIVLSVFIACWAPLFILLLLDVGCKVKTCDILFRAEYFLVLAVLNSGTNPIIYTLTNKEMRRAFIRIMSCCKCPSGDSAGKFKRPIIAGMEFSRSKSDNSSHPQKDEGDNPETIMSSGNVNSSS
Chain of Intestinal-type alkaline phosphatase (P09923 whole entry): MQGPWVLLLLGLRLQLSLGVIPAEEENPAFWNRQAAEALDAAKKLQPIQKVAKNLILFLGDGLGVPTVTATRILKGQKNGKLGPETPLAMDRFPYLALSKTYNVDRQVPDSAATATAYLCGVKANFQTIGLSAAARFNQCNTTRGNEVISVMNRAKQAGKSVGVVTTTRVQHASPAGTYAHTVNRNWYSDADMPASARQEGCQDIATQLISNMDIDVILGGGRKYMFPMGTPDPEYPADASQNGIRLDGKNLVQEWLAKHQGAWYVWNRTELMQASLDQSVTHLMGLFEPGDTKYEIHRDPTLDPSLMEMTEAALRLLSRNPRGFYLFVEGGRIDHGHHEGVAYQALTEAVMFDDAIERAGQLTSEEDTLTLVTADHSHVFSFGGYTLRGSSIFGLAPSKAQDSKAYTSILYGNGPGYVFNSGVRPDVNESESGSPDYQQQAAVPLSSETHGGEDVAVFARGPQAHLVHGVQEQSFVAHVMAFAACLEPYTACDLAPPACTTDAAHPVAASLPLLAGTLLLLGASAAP

EC50 [1]: 10.3 µM (active)
IC50 [2]: 6.67 µM (active)
IC50 [3]: 7.06 µM (active)
SMILES: O=C(NNc1nc2c(F)cccc2s1)c1cc(=O)c2ccccc2o1

EC50 [4]: 2.08 µM (active)
EC50 [5]: 0.785 µM (active)
EC50 [6]: > 50 µM (not active)
EC50 [7]: 1.99 µM (active)
SMILES: CCOC(=O)c1cc2ccc(OC(=O)c3ccco3)cc2oc1=O

SMILES: COc1cc(/C=C(\C#N)C(=O)Nc2cccc(C(=O)O)c2)ccc1OCc1ccc(Cl)cc1
IC50 (SUMO-activating enzyme [8]): 3.61 µM (active)
IC50 (SUMO-activating enzyme [9]): 17.5 µM (active)
IC50 [10]: 6.89 µM (active)
IC50 [11]: 2.6 µM (active)
IC50 [12]: 2.6 µM (active)
IC50 [13]: 0.557 µM (active)
IC50 [14]: 6.59 µM (active)
IC50 [15]: 4.78 µM (active)
IC50 [16]: > 66.6 µM (inactive)
IC50 [17]: 13 µM (active)

EC50 [18]: 10 µM (active)
SMILES: O=C(N[C@H]1CCCN(Cc2ccccc2)C1)c1cc(Cl)cc(Cl)c1

IC50 [19]: 3.38 µM (active)
IC50 [20]: 2.4 µM (active)
SMILES: Cc1ccc(S(=O)(=O)NCc2ccc(C(=O)NCCN(C)[C@H](C)c3ccccc3)cc2)cc1
